Measurements: ChEMBL document CHEMBL3872210, “Synthesis and antiproliferative mechanism of action of pyrrolo[3',2':6,7] cyclohepta[1,2-d]pyrimidin-2-amines as singlet oxygen photosensitizers” (Eur J Med Chem, 2016)
The source made the active and inactive calls. No cut-off for these calls is given here.

How the values were obtained:
[1] = Photocytotoxicity against human MCF7 cells assessed as increase in production of radical oxygen species at 400 nM pretreated for 30 mins followed by 1.5 J/cm2 UV-light irradiation for 5 mins measured after 2 hrs by H2DCFDA dye based fluorescence assay relative to control; assay type: functional
[2] = Photocytotoxicity against human MCF7 cells assessed as increase in production of radical oxygen species at 400 nM pretreated for 30 mins followed by 1.5 J/cm2 UV-light irradiation for 5 mins measured after 6 hrs by H2DCFDA dye based fluorescence assay relative to control; assay type: functional
MCF7 [3] = experiment: Induction of mitochondrial fusion in human MCF7 cells at 400 nM irradiated with 1.5 J/cm2 UV-light measured after 6 hrs by Mitotracker orange CMTM-ROS/Nuclear green staining based confocal microscopic method; assay type: functional, cell-based
MCF7 [4] = experiment: Induction of lysosomal dysfunction in human MCF7 cells at 400 nM irradiated with 1.5 J/cm2 UV-light measured after 6 hrs by Lysotracker green DND staining based confocal microscopic method; assay type: functional, cell-based

CCCCCCCCCCCCCC(=O)O[C@@H]1[C@@H](C)[C@@]2(O)[C@@H](C=C(CO)C[C@]3(O)C(=O)C(C)=C[C@@H]23)[C@@H]2C(C)(C)[C@]12OC(C)=O [PHORBOL MYRISTATE ACETATE]
Activity [1]: 120% | Activity [2]: 420% | Activity (MCF7 [3]): Active | Activity (MCF7 [4]): Active
